Experimental data: patent US9657088B2, “Anti-HSV antibody” (priority 2009, dated 2017)
Entries after “also recorded” stand apart in the source; their conditions may differ. Where two headings read alike, the source gives them in different places.

Key:
[1] = test system: gB derived peptides; type: binding, HSV-1
[2] = test system: HSV-1 F; assay: Post-exposure treatment of NOD/SCID mice with established HSV-1 infection; type: in vivo
Protocol: Infected animals per group n=7.
Vaginal virus titers of antibody or control treated mice were determined from vaginal irrigations cultured on Vero cell monolayers. Error bars indicate standard deviation.
Anesthetized female nonobese diabetic/severe combined immunodeficient (NOD-SCID) mice (NOD.CB17-Prkdc^scid/J, Charles River Laboratories, Research Models and Services, Sulzfeld, Germany), 6-8 weeks of age, were challenged intravaginally with 20 μl inoculum of 1×10^6 TCID50 HSV-1 F per mouse. Skin glue (Epiglu, Meyer-Haake Medical Innovations, Wehrheim, Germany) was applied onto the vulva to prevent discharge of the virus inoculum. […] Mice were examined daily after viral inoculation for loss of weight, vulvitis/vaginitis (redness, mucopurulent discharge and signs of inflammation) and neurological disease. Mice displaying any of theses symptoms were sacrificed immediately. […] Mice were assessed for infection by determination of virus titers from vaginal irrigations obtained on days 1, 2, 4, 6 and 8 after infection and at the time of death using the endpoint dilution assay on Vero cells. Viral loads in organs (spleen, adrenal gland, lung heart, liver, kidney, spinal cord, and brain) of sacrificed mice were determined after homogenization of organs by titration on Vero cell monolayers as described elsewhere (41). Each test and control group contained 9-10 animals with detectable HSV-1 infection.

[3] = test system: HSV-2 G; assay: Virus neutralization end-point dilution assay on Vero cells, 100 TCID50; type: cell-based; conditions: 100% reduction of CPE, 72 h
Protocol: (§1) Neutralizing activity of antibodies were determined by a standard end-point dilution assay using Vero cells grown as monolayers in microtiter plates. […] After 72 h incubation at 37° C. the antibody concentration required to prevent the formation of virus-induced CPE to 100% was determined as complete neutralization titer.
(§2) Neutralizing activity of antibodies was determined by end-point dilution assay as described previously (16). Briefly, serial dilutions of antibodies were incubated with 100 TCID50 of HSV-1 or HSV-2 for 1 h at 37° C. in cell culture medium. The antibody virus inoculum was applied to Vero cell monolayers grown in microtiter plates and cytopathic effect (CPE) was scored after 72 h incubation at 37° C. The antibody concentration required for reducing virus-induced CPE by 100% was determined as complete neutralization titer. […] For control purposes virus without antibody and antibody alone was used to induce maximal CPE or no CPE, respectively.

[4] = test system: HSV-1 F; assay: as above; type: cell-based; conditions: Table 4, read-out: concentration required for 50% neutralization
Protocol: as §1, §2

[5] = test system: HSV-1 wild-type strains and gB mutant viruses; assay: Mouse protection experiments with gB mutant viruses; type: in vivo, C57BL/6 mice; conditions: i.p. 24 hours before

## mAb 2c: murine monoclonal IgG2a antibody specific for glycoprotein B of HSV1 and HSV2; VH SEQ ID NO: 9, VL SEQ ID NO: 10
[1]; duotope FED-βA-βA-FYGYRE
  binding strength to duotope: almost saturation of the fluorescence signal intensity
[1]; duotope YSQFMG-βA-FYGYRE versus peptide 172[…]184
  binding strength to duotope: only slightly increased
[2]; 15 mg/kg i.v. at 24 h, 40 h and 56 h post infection
  protection from lethal outcome of established infection: completely protected from the lethal outcome of infection; also recorded: completely prevented lethal outcome of infection
[2]; one month after infection
  virions in sensory neurons and respective organs: no virions were detected
[3]
  Concentration for complete neutralization of 100 TCID50: 31 nM
[4]
  IC50: 4.3 nM
[5]; mice inoculated with mutants R126 (Y303N), R1375 (R304Q), B4.1 (E305K)
  protective effect in vivo: ineffective
[5]; mice inoculated with mutants R1435 (H308Y) or R233 (R328H) or wild-type viruses
  protective effect in vivo: effective
